{"source": "patent US7186831B2", "about": "“5-halo-2-alkyl[1,2,4]triazolo[1,5-a]pyrimidin-7-amines” (priority 2001, dated 2007)"}
{"experiment": "log P by HPLC", "format": "physicochemical", "details": "HPLC, gradient method, acetonitrile/0.1% aqueous phosphoric acid; EEC directive 79/831 Annex V. A8"}
{"molecule": "Cc1nc2nc(Cl)c(-c3c(F)cccc3F)c(NOC3CCCCO3)n2n1", "note": "(centres unmarked) [compound 142]", "logP": 2.54}
{"molecule": "CON(C)c1c(-c2c(F)cccc2F)c(Cl)nc2nc(C)nn12", "note": "[compound 143]", "logP": 2.54}
{"molecule": "Cc1nc2nc(Cl)c(-c3c(F)cccc3F)c(NOC(C)C)n2n1", "note": "[compound 144]", "logP": 2.46}
{"molecule": "Cc1nc2nc(Cl)c(-c3c(F)cc(F)cc3F)c(NCC(C)C)n2n1", "note": "[compound 145]", "logP": 3.14}
{"molecule": "Cc1nc2nc(Cl)c(-c3c(F)cc(F)cc3F)c(NCC(C)(C)C)n2n1", "note": "[compound 146]", "logP": 3.5}
{"molecule": "CCC(C)Nc1c(-c2c(F)cc(F)cc2F)c(Cl)nc2nc(C)nn12", "note": "(centres unmarked) [compound 147]", "logP": 3.1}
{"molecule": "Cc1nc2nc(Cl)c(-c3c(F)cc(F)cc3F)c(N(C)CCN(C)C)n2n1", "note": "[compound 148]", "logP": 1.5}
{"molecule": "C#CCN(C)c1c(-c2c(F)cc(F)cc2F)c(Cl)nc2nc(C)nn12", "note": "[compound 149]", "logP": 2.77}
{"molecule": "CCOC(=O)CN(C)c1c(-c2c(F)cc(F)cc2F)c(Cl)nc2nc(C)nn12", "note": "[compound 150]", "logP": 2.8}
{"molecule": "Cc1nc2nc(Cl)c(-c3c(F)cc(F)cc3F)c(N(C)CC3OCCO3)n2n1", "note": "[compound 151]", "logP": 2.67}
{"molecule": "C=CCN(C)c1c(-c2c(F)cc(F)cc2F)c(Cl)nc2nc(C)nn12", "note": "[compound 152]", "logP": 3.18}
{"molecule": "Cc1nc2nc(Cl)c(-c3c(F)cc(F)cc3F)c(N(C)Cc3ccco3)n2n1", "note": "[compound 153]", "logP": 3.22}
{"molecule": "Cc1nc2nc(Cl)c(-c3c(F)cc(F)cc3F)c(N(C)CC(C)C)n2n1", "note": "[compound 154]", "logP": 3.63}
{"molecule": "C=C(C)CN(C)c1c(-c2c(F)cc(F)cc2F)c(Cl)nc2nc(C)nn12", "note": "[compound 155]", "logP": 3.55}
{"molecule": "CCN(CCN(C)C)c1c(-c2c(F)cc(F)cc2F)c(Cl)nc2nc(C)nn12", "note": "[compound 156]", "logP": 1.59}
{"molecule": "C=CCN(CC)c1c(-c2c(F)cc(F)cc2F)c(Cl)nc2nc(C)nn12", "note": "[compound 157]", "logP": 3.5}
{"molecule": "CCN(Cc1ccco1)c1c(-c2c(F)cc(F)cc2F)c(Cl)nc2nc(C)nn12", "note": "[compound 158]", "logP": 3.55}
{"molecule": "CCN(CC1CCCO1)c1c(-c2c(F)cc(F)cc2F)c(Cl)nc2nc(C)nn12", "note": "(centres unmarked) [compound 159]", "logP": 3.26}
{"molecule": "CCOC(=O)CN(CC)c1c(-c2c(F)cc(F)cc2F)c(Cl)nc2nc(C)nn12", "note": "[compound 160]", "logP": 3.14}
{"molecule": "CCCCN(CC)c1c(-c2c(F)cc(F)cc2F)c(Cl)nc2nc(C)nn12", "note": "[compound 161]", "logP": 4.08}
{"molecule": "CCCN(CC1CC1)c1c(-c2c(F)cc(F)cc2F)c(Cl)nc2nc(C)nn12", "note": "[compound 162]", "logP": 4.08}
{"molecule": "CCCN(CC1CCCO1)c1c(-c2c(F)cc(F)cc2F)c(Cl)nc2nc(C)nn12", "note": "(centres unmarked) [compound 163]", "logP": 3.68}
{"molecule": "Cc1nc2nc(Cl)c(-c3c(F)cc(F)cc3F)c(N3CCCCC3C)n2n1", "note": "(centres unmarked) [compound 164]", "logP": 3.81}
{"molecule": "Cc1nc2nc(Cl)c(-c3c(F)cc(F)cc3F)c(N3CCCC(C)C3)n2n1", "note": "(centres unmarked) [compound 165]", "logP": 3.9}
{"molecule": "Cc1nc2nc(Cl)c(-c3c(F)cc(F)cc3F)c(N3CCC(C)CC3)n2n1", "note": "[compound 166]", "logP": 3.9}
{"molecule": "Cc1nc2nc(Cl)c(-c3c(F)cc(F)cc3F)c(N3CCC(F)CC3)n2n1", "note": "[compound 167]", "logP": 3.03}
{"molecule": "Cc1nc2nc(Cl)c(-c3c(F)cc(F)cc3F)c(N3Cc4ccccc4CO3)n2n1", "note": "[compound 168]", "logP": 3.73}
{"molecule": "Cc1nc2nc(Cl)c(-c3c(F)cccc3F)c(N3CC(C)OC(C)C3)n2n1", "note": "(centres unmarked) [compound 169]", "logP": 2.84}
{"molecule": "Cc1nc2nc(Cl)c(-c3c(F)cccc3F)c(N3CCCC3)n2n1", "note": "[compound 170]", "logP": 2.61}
{"molecule": "Cc1nc2nc(Cl)c(-c3c(F)cccc3F)c(N3CCCCC3)n2n1", "note": "[compound 171]", "logP": 3.17}
{"molecule": "CCCNc1c(-c2c(F)cccc2F)c(Cl)nc2nc(C)nn12", "note": "[compound 172]", "logP": 2.52}
{"molecule": "Cc1nc2nc(Cl)c(-c3c(F)cccc3F)c(NC3CCCC3)n2n1", "note": "[compound 173]", "logP": 2.97}
{"molecule": "Cc1nc2nc(Cl)c(-c3c(F)cccc3F)c(NC(C)C)n2n1", "note": "[compound 174]", "logP": 2.52}
{"molecule": "CCN(CC)c1c(-c2c(F)cccc2F)c(Cl)nc2nc(C)nn12", "note": "[compound 175]", "logP": 2.98}
{"molecule": "Cc1nc2nc(Cl)c(-c3c(F)cccc3F)c(N3CCOCC3)n2n1", "note": "[compound 176]", "logP": 2.2}
{"molecule": "COCCNc1c(-c2c(F)cccc2F)c(Cl)nc2nc(C)nn12", "note": "[compound 177]", "logP": 2.12}
{"molecule": "Cc1nc2nc(Cl)c(-c3c(F)cccc3F)c(NC3CC3)n2n1", "note": "[compound 178]", "logP": 2.28}
{"molecule": "Cc1nc2nc(Cl)c(-c3c(F)cccc3F)c(N3CCSCC3)n2n1", "note": "[compound 179]", "logP": 2.84}
{"molecule": "Cc1nc2nc(Cl)c(-c3c(F)cccc3F)c(N3CCC(C(F)(F)F)CC3)n2n1", "note": "[compound 180]", "logP": 3.36}
{"molecule": "Cc1nc2nc(Cl)c(-c3c(F)cccc3F)c(NCC3CC3)n2n1", "note": "[compound 181]", "logP": 2.62}
{"molecule": "Cc1nc2nc(Cl)c(-c3c(F)cccc3F)c(NC(C)C(F)(F)F)n2n1", "note": "(centres unmarked) [compound 182]", "logP": 2.78}
{"molecule": "C=C(C)CNc1c(-c2c(F)cccc2F)c(Cl)nc2nc(C)nn12", "note": "[compound 183]", "logP": 2.56}
{"molecule": "Cc1nc2nc(Cl)c(-c3c(F)cccc3F)c(NCCC(F)(F)F)n2n1", "note": "[compound 184]", "logP": 2.63}
{"molecule": "Cc1nc2nc(Cl)c(-c3c(F)cccc3F)c(NC(C)C3CCCCC3)n2n1", "note": "(centres unmarked) [compound 185]", "logP": 4}
{"molecule": "Cc1nc2nc(Cl)c(-c3c(F)cccc3F)c(NC3CCCCC3)n2n1", "note": "[compound 186]", "logP": 3.28}
{"molecule": "CCC(C)Nc1c(-c2c(F)cccc2F)c(Cl)nc2nc(C)nn12", "note": "(centres unmarked) [compound 187]", "logP": 2.82}
{"molecule": "Cc1nc2nc(Cl)c(-c3c(F)cccc3F)c(NC3CCCC(C(F)(F)F)C3)n2n1", "note": "(centres unmarked) [compound 188]", "logP": 3.37}
{"molecule": "Cc1nc2nc(Cl)c(-c3c(F)cccc3F)c(NC3CC(C(F)(F)F)CC(C(F)(F)F)C3)n2n1", "note": "(centres unmarked) [compound 189]", "logP": 3.62}
{"molecule": "Cc1nc2nc(Cl)c(-c3c(F)cccc3F)c(NC3CCC(C(F)(F)F)CC3)n2n1", "note": "(centres unmarked) [compound 190]", "logP": 3.39}
{"molecule": "Cc1nc2nc(Cl)c(-c3ccc(F)cc3F)c(NCC(C)C)n2n1", "note": "[compound 191]", "logP": 3}
{"molecule": "CCCCNc1c(-c2ccc(F)cc2F)c(Cl)nc2nc(C)nn12", "note": "[compound 192]", "logP": 3.04}
{"molecule": "Cc1nc2nc(Cl)c(-c3ccc(F)cc3F)c(NCC(C)(C)C)n2n1", "note": "[compound 193]", "logP": 3.4}
{"molecule": "CCC(C)Nc1c(-c2ccc(F)cc2F)c(Cl)nc2nc(C)nn12", "note": "(centres unmarked) [compound 194]", "logP": 3.01}
{"molecule": "Cc1nc2nc(Cl)c(-c3ccc(F)cc3F)c(NCCC(F)(F)F)n2n1", "note": "[compound 195]", "logP": 2.76}
{"molecule": "Cc1nc2nc(Cl)c(-c3ccc(F)cc3F)c(NC(C)C)n2n1", "note": "[compound 196]", "logP": 2.69}
{"molecule": "Cc1nc2nc(Cl)c(-c3ccc(F)cc3F)c(NC3CCCCC3)n2n1", "note": "[compound 197]", "logP": 3.46}
{"molecule": "Cc1nc2nc(Cl)c(-c3ccc(F)cc3F)c(NC(C)C3CCCCC3)n2n1", "note": "(centres unmarked) [compound 198]", "logP": 4.24}
{"molecule": "Cc1nc2nc(Cl)c(-c3ccc(F)cc3F)c(NC3CC3)n2n1", "note": "[compound 199]", "logP": 2.45}
{"molecule": "Cc1nc2nc(Cl)c(-c3ccc(F)cc3F)c(NCC3CC3)n2n1", "note": "[compound 200]", "logP": 2.77}
{"molecule": "C=C(C)CNc1c(-c2ccc(F)cc2F)c(Cl)nc2nc(C)nn12", "note": "[compound 201]", "logP": 2.72}
{"molecule": "Cc1nc2nc(Cl)c(-c3ccc(F)cc3F)c(N(C)CC3OCCO3)n2n1", "note": "[compound 202]", "logP": 2.56}
{"molecule": "C=CCN(C)c1c(-c2ccc(F)cc2F)c(Cl)nc2nc(C)nn12", "note": "[compound 203]", "logP": 3.06}
{"molecule": "Cc1nc2nc(Cl)c(-c3ccc(F)cc3F)c(N(C)Cc3ccco3)n2n1", "note": "[compound 204]", "logP": 3.1}
{"molecule": "Cc1nc2nc(Cl)c(-c3ccc(F)cc3F)c(N(C)CC(C)C)n2n1", "note": "[compound 205]", "logP": 3.49}
{"molecule": "C=C(C)CN(C)c1c(-c2ccc(F)cc2F)c(Cl)nc2nc(C)nn12", "note": "[compound 206]", "logP": 3.41}
{"molecule": "C=CCN(CC)c1c(-c2ccc(F)cc2F)c(Cl)nc2nc(C)nn12", "note": "[compound 207]", "logP": 3.35}
{"molecule": "CCN(CC1CCCO1)c1c(-c2ccc(F)cc2F)c(Cl)nc2nc(C)nn12", "note": "(centres unmarked) [compound 208]", "logP": 3.18}
{"molecule": "CCCN(CCOC)c1c(-c2ccc(F)cc2F)c(Cl)nc2nc(C)nn12", "note": "[compound 209]", "logP": 3.26}
{"molecule": "Cc1nc2nc(Cl)c(-c3ccccc3Cl)c(NCC(C)C)n2n1", "note": "[compound 210]", "logP": 3.1}
{"molecule": "Cc1nc2nc(Cl)c(-c3ccccc3Cl)c(NCC(C)(C)C)n2n1", "note": "[compound 211]", "logP": 3.57}
{"molecule": "CCC(C)Nc1c(-c2ccccc2Cl)c(Cl)nc2nc(C)nn12", "note": "(centres unmarked) [compound 212]", "logP": 3.09}
{"molecule": "Cc1nc2nc(Cl)c(-c3ccccc3Cl)c(NC3CCCC3)n2n1", "note": "[compound 213]", "logP": 3.28}
{"molecule": "Cc1nc2nc(Cl)c(-c3ccccc3Cl)c(NC(C)C)n2n1", "note": "[compound 214]", "logP": 2.75}
{"molecule": "Cc1nc2nc(Cl)c(-c3ccccc3Cl)c(NC3CC3)n2n1", "note": "[compound 215]", "logP": 2.54}
{"molecule": "Cc1nc2nc(Cl)c(-c3ccccc3Cl)c(NCC3CC3)n2n1", "note": "[compound 216]", "logP": 2.85}
{"molecule": "C=C(C)CNc1c(-c2ccccc2Cl)c(Cl)nc2nc(C)nn12", "note": "[compound 217]", "logP": 2.83}
{"molecule": "Cc1nc2nc(Cl)c(-c3ccccc3Cl)c(NC(C)CC(C)C)n2n1", "note": "(centres unmarked) [compound 218]", "logP": 3.84}
{"molecule": "Cc1nc2nc(Cl)c(-c3ccccc3Cl)c(N(C)CC3OCCO3)n2n1", "note": "[compound 219]", "logP": 2.62}
{"molecule": "C=CCN(C)c1c(-c2ccccc2Cl)c(Cl)nc2nc(C)nn12", "note": "[compound 220]", "logP": 3.19}
{"molecule": "Cc1nc2nc(Cl)c(-c3ccccc3Cl)c(N(C)CC(C)C)n2n1", "note": "[compound 221]", "logP": 3.65}
{"molecule": "COCCN(C)c1c(-c2ccccc2Cl)c(Cl)nc2nc(C)nn12", "note": "[compound 222]", "logP": 2.64}
{"molecule": "C=C(C)CN(C)c1c(-c2ccccc2Cl)c(Cl)nc2nc(C)nn12", "note": "[compound 223]", "logP": 3.57}
{"molecule": "C=CCN(CC)c1c(-c2ccccc2Cl)c(Cl)nc2nc(C)nn12", "note": "[compound 224]", "logP": 3.5}
{"molecule": "CCN(CCOC)c1c(-c2ccccc2Cl)c(Cl)nc2nc(C)nn12", "note": "[compound 225]", "logP": 2.94}
{"molecule": "Cc1nc2nc(Cl)c(-c3ccccc3Cl)c(N3CCCC3C)n2n1", "note": "(centres unmarked) [compound 226]", "logP": 3.27}
{"molecule": "Cc1nc2nc(Cl)c(-c3ccccc3Cl)c(N3CCCC3)n2n1", "note": "[compound 227]", "logP": 0.75}
